Measurements published in patent publication US8853387B2, “Mimetics of sulfated oligosaccharides” (Istituto di Ricerche Chimiche e Biochimiche “G. Ronzoni”, priority 2008, dated 2014).

Target: T1, recombinant human heparanase (Homo sapiens, UniProt Q9Y251)
T1 sequence (Q9Y251 158-543 limits assumed): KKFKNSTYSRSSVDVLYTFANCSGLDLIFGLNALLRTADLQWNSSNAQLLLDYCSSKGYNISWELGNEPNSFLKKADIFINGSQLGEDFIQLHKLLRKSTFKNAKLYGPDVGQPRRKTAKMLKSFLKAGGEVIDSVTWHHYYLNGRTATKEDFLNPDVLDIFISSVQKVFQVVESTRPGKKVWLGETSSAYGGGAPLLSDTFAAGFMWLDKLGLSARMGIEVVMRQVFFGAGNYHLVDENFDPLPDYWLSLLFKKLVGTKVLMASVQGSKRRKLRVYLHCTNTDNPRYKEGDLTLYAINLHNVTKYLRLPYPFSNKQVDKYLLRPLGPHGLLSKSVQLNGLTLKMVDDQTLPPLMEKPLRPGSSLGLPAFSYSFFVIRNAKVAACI
T1 sequence (Q9Y251 36-109 limits assumed): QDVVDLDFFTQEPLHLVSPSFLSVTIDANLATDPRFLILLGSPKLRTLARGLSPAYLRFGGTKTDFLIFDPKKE
Experiment: Heparanase activity on sulfate labeled ECM substrate
Format: biochemical
Details: compound at 5 μg/ml; recombinant human heparanase 10 ng/ml, 37° C., pH 6.0, 4 h; control (enzyme alone) = 100
Method: Sulfated compound was tested at two concentrations (1 & 5 μg/ml) for its ability to inhibit the heparanase enzyme, using metabolically sulfate labeled ECM as a substrate. Briefly, sulfate labeled ECM coating the surface of 35-mm tissue culture dishes, is incubated (37° C., pH 6.0, 4 h, 1 ml final volume) with recombinant human heparanase (10 ng/ml) in the absence and presence of increasing amounts of each compound. The reaction mixture contains: 50 mM NaCl, 1 mM DTT, 1 mM CaCl2, and 10 mM buffer Phosphate-Citrate, pH 6.0. To evaluate the occurrence of proteoglycan degradation, the incubation medium is collected and applied for gel filtration on Sepharose 6B columns (0.9×30 cm). Fractions (0.2 ml) are eluted with PBS at a flow rate of 5 ml/h and counted for radioactivity. The excluded volume (VO) is marked by blue dextran and the total included volume (Vt) by phenol red. Degradation fragments of HS side chains are eluted at 0.5<Kav<0.8 (peak II). Results are best presented as the actual gel filtration profiles. Numerical values derived from these graphs are presented in FIG. 1 as heparanase activity (% of control), where: Heparanase activity=Kav×total cpm in peak II (fractions 15-35). Kav=(Ve−Vo/Vt−Vo). • Control Kay=Kay obtained in the presence of enzyme alone (without inhibitors). Effect of Sulfated Malto-Oligosaccharides Mimics (MOS) on Hpa Activity—Tables 1 and 2.

Maltohexaose sulfate [MHS] was tested. Which “Heparanase activity (5 μg/ml)” value did it give?
The value was 27 % of control.
